PMC7901646, “Pyrrolo[2′,3′:3,4]cyclohepta[1,2-d][1,2]oxazoles, a New Class of Antimitotic Agents Active against Multiple Malignant Cell Types” (Journal of Medicinal Chemistry, 2020)

Columns and labels:
CAKI-1 = assay: NCI-60 screen; type: cell-based; conditions: Homo sapiens, Renal Cancer
Method: (§1) All the synthesized compounds 51–76 were tested at a 10^–5 M concentration for their antitumor activity on the full NCI-60 panel comprising cancer cell lines derived from nine human cancer cell types (leukemia, non-small-cell lung, colon, central nervous system, melanoma, ovarian, renal, prostate, and breast).[50]

DU-145 = assay: NCI-60 screen; type: cell-based; conditions: Homo sapiens, Prostate Cancer
Method: as §1

HCT-116 = assay: NCI-60 screen; type: cell-based; conditions: Homo sapiens, Colon Cancer
Method: as §1

HOP-62 = assay: NCI-60 screen; type: cell-based; conditions: Homo sapiens, Non-Small-Cell Lung Cancer
Method: as §1

HT29 = assay: NCI-60 screen; type: cell-based; conditions: Homo sapiens, HT-29; Colon Cancer
Method: as §1

IGROV1 = assay: NCI-60 screen; type: cell-based; conditions: Homo sapiens, IGROV-1; Ovarian Cancer
Method: as §1

MALME-3M = assay: NCI-60 screen; type: cell-based; conditions: Homo sapiens, Melanoma
Method: as §1

MDA-MB-435 = assay: NCI-60 screen; type: cell-based; conditions: Homo sapiens, Melanoma
Method: as §1

MOLT-4 = assay: NCI-60 screen; type: cell-based; conditions: Homo sapiens, Leukemia
Method: as §1

NCI-H322M = assay: NCI-60 screen; type: cell-based; conditions: Homo sapiens, Non-Small-Cell Lung Cancer
Method: as §1

NCI/ADR-RES = assay: NCI-60 screen; type: cell-based; conditions: Homo sapiens, Ovarian Cancer
Method: as §1

OVCAR-5 = assay: NCI-60 screen; type: cell-based; conditions: Homo sapiens, Ovarian Cancer
Method: as §1

SK-MEL-5 = assay: NCI-60 screen; type: cell-based; conditions: Homo sapiens, Melanoma
Method: as §1

SW-620 = assay: NCI-60 screen; type: cell-based; conditions: Homo sapiens, Colon Cancer
Method: as §1

T-47D = assay: NCI-60 screen; type: cell-based; conditions: Homo sapiens, T47D; Breast Cancer
Method: as §1

786–0 = assay: NCI-60 screen; type: cell-based; conditions: Homo sapiens, Renal Cancer
Method: as §1

A549/ATCC = assay: NCI-60 screen; type: cell-based; conditions: Homo sapiens, Non-Small-Cell Lung Cancer
Method: as §1

BT-549 = assay: NCI-60 screen; type: cell-based; conditions: Homo sapiens, Breast Cancer
Method: as §1

HCC-2998 = assay: NCI-60 screen; type: cell-based; conditions: Homo sapiens, Colon Cancer
Method: as §1

HOP-92 = assay: NCI-60 screen; type: cell-based; conditions: Homo sapiens, Non-Small-Cell Lung Cancer
Method: as §1

HS 578T = assay: NCI-60 screen; type: cell-based; conditions: Homo sapiens, Breast Cancer
Method: as §1

MDA-MB-468 = assay: NCI-60 screen; type: cell-based; conditions: Homo sapiens, Breast Cancer
Method: as §1

OVCAR-4 = assay: NCI-60 screen; type: cell-based; conditions: Homo sapiens, Ovarian Cancer
Method: as §1

OVCAR-8 = assay: NCI-60 screen; type: cell-based; conditions: Homo sapiens, Ovarian Cancer
Method: as §1

RXF 393 = assay: NCI-60 screen; type: cell-based; conditions: Homo sapiens, Renal Cancer
Method: as §1

SF-539 = assay: NCI-60 screen; type: cell-based; conditions: Homo sapiens, CNS Cancer
Method: as §1

SK-MEL-28 = assay: NCI-60 screen; type: cell-based; conditions: Homo sapiens, Melanoma
Method: as §1

SK-MEL-2 = assay: NCI-60 screen; type: cell-based; conditions: Homo sapiens, Melanoma
Method: as §1

SN12C = assay: NCI-60 screen; type: cell-based; conditions: Homo sapiens, Renal Cancer
Method: as §1

SNB-75 = assay: NCI-60 screen; type: cell-based; conditions: Homo sapiens, CNS Cancer
Method: as §1

UO-31 = assay: NCI-60 screen; type: cell-based; conditions: Homo sapiens, Renal Cancer
Method: as §1

[1] = test system: human peripheral blood lymphocytes not stimulated with PHA; assay: Cytotoxicity in resting PBLs (MTT); type: cell-based; conditions: Lymphocyte, 72 h, mean ± SEM, three experiments, read-out: GI50 PBLresting
Method: (§2) PBLs were obtained from human peripheral blood (leucocyte rich plasma-buffy coats) from healthy volunteers using the Lymphoprep (Fresenius KABI Norge AS) gradient density centrifugation.
(§3) After extensive washing, cells were resuspended (1.0 × 10^6 cells/mL) in RPMI-1640 with 10% fetal bovine serum and incubated overnight. For cytotoxicity evaluations in proliferating PBL cultures, nonadherent cells were resuspended at 5 × 10^5 cells/mL in growth medium, containing 2.5 μg/mL PHA (Irvine Scientific). Different concentrations of the test compounds were added, and viability was determined 72 h later by the MTT test. For cytotoxicity evaluations in resting PBL cultures, nonadherent cells were resuspended (5 × 10^5 cells/mL) and treated for 72 h with the test compounds.

[2] = test system: human peripheral blood lymphocytes stimulated with PHA; assay: Cytotoxicity in PHA-stimulated PBLs (MTT); type: cell-based; conditions: Lymphocyte, 72 h, mean ± SEM, three experiments, read-out: GI50 PBLPHA
Method: as §2, §3

bovine brain tubulin = bovine brain tubulin (Bos taurus, UniProt P81947+Q6B856); assay: Inhibition of tubulin assembly (turbidimetry); type: biochemical; conditions: 9 μM (0.9 mg/mL) tubulin, 20 min at 30 °C; read-out: inhibition of tubulin assembly IC50 ± SD
bovine brain tubulin, sequence (Q6B856 whole entry): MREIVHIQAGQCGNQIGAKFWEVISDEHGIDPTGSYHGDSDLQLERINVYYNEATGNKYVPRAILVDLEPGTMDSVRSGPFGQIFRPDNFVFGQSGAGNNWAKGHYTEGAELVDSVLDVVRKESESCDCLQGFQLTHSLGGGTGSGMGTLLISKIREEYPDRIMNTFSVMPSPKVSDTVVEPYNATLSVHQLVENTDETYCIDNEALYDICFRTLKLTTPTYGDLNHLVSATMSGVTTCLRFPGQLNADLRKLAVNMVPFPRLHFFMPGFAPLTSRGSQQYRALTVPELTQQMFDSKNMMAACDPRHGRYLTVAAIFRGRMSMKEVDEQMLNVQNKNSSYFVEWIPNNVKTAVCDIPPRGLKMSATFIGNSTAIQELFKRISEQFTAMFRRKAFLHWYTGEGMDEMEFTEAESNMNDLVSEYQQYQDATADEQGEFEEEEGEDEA
bovine brain tubulin, sequence (P81947 whole entry): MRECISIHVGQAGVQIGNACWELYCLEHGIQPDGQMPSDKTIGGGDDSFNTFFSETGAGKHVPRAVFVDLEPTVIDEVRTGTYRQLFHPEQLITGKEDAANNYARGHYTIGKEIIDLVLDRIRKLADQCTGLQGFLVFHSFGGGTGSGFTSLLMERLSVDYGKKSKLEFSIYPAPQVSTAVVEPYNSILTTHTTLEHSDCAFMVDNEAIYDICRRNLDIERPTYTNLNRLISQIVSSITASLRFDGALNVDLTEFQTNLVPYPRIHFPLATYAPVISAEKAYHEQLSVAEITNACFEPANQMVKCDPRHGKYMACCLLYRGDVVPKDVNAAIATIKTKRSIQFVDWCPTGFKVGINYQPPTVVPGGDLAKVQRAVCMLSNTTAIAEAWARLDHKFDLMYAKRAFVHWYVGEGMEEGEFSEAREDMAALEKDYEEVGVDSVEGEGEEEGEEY

HeLa cells = assay: Flow cytometric cell cycle distribution; type: cell-based; conditions: 24 h
Method: To evaluate the effects of compounds 63, 66, and 75 on cell cycle progression, we first treated HeLa cells for 24 h.The cells were then labeled with propidium iodide (PI) and analyzed by flow cytometry. As shown in Figure 5 (panel B), compound 66 induced arrest of the cell cycle in the G2/M phase.
5 ×10^5 HeLa cells were treated with different concentrations of the test compounds for 24 h. After the incubation period, the cells were collected, centrifuged, and fixed with ice-cold ethanol (70%). The cells were treated with lysis buffer containing RNase A and 0.1% Triton X-100 and stained with PI. Samples were analyzed on a Cytomic FC500 flow cytometer (Beckman Coulter). DNA histograms were analyzed using MultiCycle for Windows (Phoenix Flow Systems).

NCI-H23 = assay: NCI-60 screen; type: cell-based; conditions: Homo sapiens, Non-Small-Cell Lung Cancer
Method: as §1

U251 = assay: NCI-60 screen; type: cell-based; conditions: Homo sapiens, U-251; CNS Cancer
Method: as §1

tubulin colchicine site = tubulin colchicine site (Bos taurus, UniProt P81947+Q6B856); assay: Inhibition of [3H]colchicine binding to tubulin; conditions: read-out: inhibition of colchicine binding % inhibition ± SD
tubulin colchicine site, sequence (Q6B856 whole entry): as the sequence (Q6B856 whole entry) above
tubulin colchicine site, sequence (P81947 whole entry): as the sequence (P81947 whole entry) above
Method: Reaction mixtures in the assembly assay contained 9 μM (0.9 mg/mL) tubulin in the assembly assay, and in the colchicine assay they contained 0.5 μM tubulin, 5.0 μM [^3H]colchicine, and 5.0 μM inhibitor.
Analysis of effects on tubulin polymerization was performed by turbidimetry at 350 nm in recording spectrophotometers equipped with electronic temperature controllers as described in detail elsewhere.[71] […] The binding of [^3H]colchicine to tubulin was perfomed as described in detail previously[72] except that the tubulin concentration was reduced from 0.1 mg/mL to 0.05 mg/mL and only one, instead of two, DEAE-cellulose filter was used for each reaction mixture.

| Structure (SMILES) | GI50 (CAKI-1) [µM] | GI50 (DU-145) [µM] | GI50 (HCT-116) [µM] | GI50 (HOP-62) [µM] | GI50 (HT29) [µM] | GI50 (IGROV1) [µM] | GI50 (MALME-3M) [µM] | GI50 (MDA-MB-435) [µM] | GI50 (MOLT-4) [µM] | GI50 (NCI/ADR-RES) [µM] | GI50 (OVCAR-5) [µM] | GI50 (SK-MEL-5) [µM] | GI50 (SW-620) [µM] | GI50 (T-47D) [µM] | GI50 (786–0) [µM] | GI50 (BT-549) [µM] | GI50 (HS 578T) [µM] | GI50 (MDA-MB-468) [µM] | GI50 (OVCAR-4) [µM] | GI50 (OVCAR-8) [µM] | also measured |
| --- | --- | --- | --- | --- | --- | --- | --- | --- | --- | --- | --- | --- | --- | --- | --- | --- | --- | --- | --- | --- | --- |
| CCOC(=O)c1c(Cl)c2c(n1Cc1ccccc1)-c1oncc1CCC2 [Compound 70, Ethyl 7-Chloro-9-benzyl-4,5,6,9-tetrahydropyrrolo[2′,3′:3,4]cyclohepta[1,2-d][1,2]oxazole-8-carboxylate] | 3.51 | > 100 | 4.02 | 4.35 | 2.95 | 4.39 | 3.68 | 1.4 | 3.58 | 2.83 | > 100 | 3.53 | 3.81 | 2.69 | – | – | – | – | – | – | GI50 (NCI-H322M): > 100 µM |
| CCOC(=O)c1cc2c(n1Cc1cccc(OC)c1)-c1oncc1CCC2 [Compound 63, Ethyl 9-(3-Methoxybenzyl)-4,5,6,9-tetrahydropyrrolo[2′,3′:3,4]cyclohepta[1,2-d][1,2]oxazole-8-carboxylate] | 2.31 | 2.18 | 0.47 | 4.34 | 0.36 | 1.16 | 0.89 | 0.15 | 2.3 | 0.43 | 5.94 | 0.75 | 0.48 | 2 | 6.74 | 0.98 | 1.6 | 0.34 | 18.7 | 3.13 | GI50 (A549/ATCC): 0.76 µM; GI50 (HCC-2998): 4.18 µM; GI50 (HOP-92): 4.21 µM; GI50 (RXF 393): 0.67 µM; GI50 (SF-539): 1.14 µM; GI50 (SK-MEL-28): 5.12 µM; GI50 (SK-MEL-2): 0.56 µM; GI50 (SN12C): 3.51 µM; GI50 (SNB-75): 1.6 µM; GI50 (UO-31): 3.37 µM; GI50 [1]: > 100 µM; GI50 [2]: > 100 µM; IC50 (bovine brain tubulin): 6.3 ± 0.06 µM; concentration at which G2/M arrest first occurred (HeLa cells): 1 µM |
| CCOC(=O)c1cc2c(n1Cc1cc(OC)c(OC)c(OC)c1)-c1oncc1CCC2 [Compound 67, Ethyl 9-(3,4,5-Trimethoxybenzyl)-4,5,6,9-tetrahydropyrrolo[2′,3′:3,4]cyclohepta[1,2-d][1,2]oxazole-8-carboxylate] | 0.07 | 0.28 | 0.19 | 0.17 | 0.07 | 0.06 | 0.05 | 0.02 | 0.39 | 0.06 | 0.53 | 0.17 | 0.14 | 0.1 | 0.97 | 0.29 | 0.34 | 0.74 | 0.72 | 0.24 | GI50 (HCC-2998): 0.3 µM; GI50 (NCI-H23): 0.37 µM; GI50 (NCI-H322M): 0.32 µM; GI50 (RXF 393): 0.12 µM; GI50 (SF-539): 0.12 µM; GI50 (SK-MEL-28): 0.3 µM; GI50 (SN12C): 0.76 µM; GI50 (SNB-75): 0.07 µM; GI50 (U251): 0.14 µM; GI50 (UO-31): 0.08 µM; IC50 (bovine brain tubulin): 4.6 ± 0.8 µM; inhibition at 5 µM (tubulin colchicine site): 25 ± 0.01% |
| CCOC(=O)c1cc2c(n1Cc1ccccc1OC)-c1oncc1CCC2 [Compound 62, Ethyl 9-(2-Methoxybenzyl)-4,5,6,9-tetrahydropyrrolo[2′,3′:3,4]cyclohepta[1,2-d][1,2]oxazole-8-carboxylate] | 3.51 | 5.27 | 3.79 | 1.89 | 0.91 | 1.99 | 3.08 | 0.35 | 5.68 | 1.36 | > 100 | 2.61 | 2.02 | 2.46 | > 100 | 7.73 | 3.38 | 2.95 | 9.35 | 3.85 | GI50 (HCC-2998): > 100 µM; GI50 (HOP-92): 0.3 µM; GI50 (NCI-H23): 8.52 µM; GI50 (NCI-H322M): 5.23 µM; GI50 (RXF 393): 2.08 µM; GI50 (SF-539): 2.48 µM; GI50 (SK-MEL-28): > 100 µM; GI50 (SN12C): > 100 µM; GI50 (SNB-75): 1.97 µM; GI50 (U251): 3.78 µM; GI50 (UO-31): 6.53 µM |
| CCOC(=O)c1cc2c(n1Cc1cc(OC)cc(OC)c1)-c1oncc1CCC2 [Compound 66, Ethyl 9-(3,5-Dimethoxybenzyl)-4,5,6,9-tetrahydropyrrolo[2′,3′:3,4]cyclohepta[1,2-d][1,2]oxazole-8-carboxylate] | 0.05 | 0.04 | 0.04 | – | 0.03 | 0.06 | – | 0.01 | 0.26 | 0.03 | 0.18 | 0.04 | 0.04 | – | 0.05 | 1.72 | 0.04 | 0.03 | 13.4 | 0.08 | GI50 (A549/ATCC): 0.06 µM; GI50 (HCC-2998): 0.23 µM; GI50 (RXF 393): 0.02 µM; GI50 (SF-539): 0.03 µM; GI50 (SK-MEL-28): 0.09 µM; GI50 (SK-MEL-2): 0.04 µM; GI50 (SN12C): 0.07 µM; GI50 (SNB-75): 0.03 µM; GI50 (UO-31): 0.05 µM; GI50 [1]: > 100 µM; GI50 [2]: > 100 µM; IC50 (bovine brain tubulin): 2.6 ± 0.03 µM; concentration at which G2/M arrest first occurred (HeLa cells): 0.125 µM; cells arrested in G2/M (HeLa cells; 0.5 μM): over 80%; inhibition at 5 µM (tubulin colchicine site): 62 ± 2% |
| CCOC(=O)c1c(Cl)c2c(n1Cc1cc(OC)cc(OC)c1)-c1oncc1CCC2 [Compound 75, Ethyl 7-Chloro-9-(3,5-dimethoxybenzyl)-4,5,6,9-tetrahydropyrrolo[2′,3′:3,4]cyclohepta[1,2-d][1,2]oxazole-8-carboxylate] | 0.28 | 0.35 | 0.43 | 0.29 | 0.27 | 0.34 | 0.2 | 0.03 | 0.58 | 0.2 | – | 0.49 | 0.32 | 0.44 | 4.24 | 27 | 0.45 | 0.73 | 0.85 | 0.41 | GI50 (HOP-92): 0.46 µM; GI50 (NCI-H23): 0.68 µM; GI50 (NCI-H322M): 0.51 µM; GI50 (RXF 393): 0.25 µM; GI50 (SF-539): 0.24 µM; GI50 (SK-MEL-28): 0.66 µM; GI50 (SK-MEL-2): 0.22 µM; GI50 (SN12C): 0.83 µM; GI50 (SNB-75): 0.22 µM; GI50 (U251): 0.31 µM; GI50 (UO-31): 0.78 µM; GI50 [1]: > 100 µM; GI50 [2]: > 100 µM; IC50 (bovine brain tubulin): 1.9 ± 0.1 µM; concentration at which G2/M arrest first occurred (HeLa cells): 0.25 µM; inhibition at 5 µM (tubulin colchicine site): 42 ± 5% |
